Test results: the OligoGym collection
Oligonucleotides are given in HELM: sugar(base)linkage, 5' to 3'; d 2'-deoxyribose, r ribose, m 2'-O-methylribose, p phosphate. ss, as = sense and antisense strand
Further: test concentration or dose not given here.

What follows are substances tested against Mmp7 (rat) (assay: reporter assay of Huesken 2005). Settings: siRNA.
“RNA1{r(C)p.r(U)p.r(A)p.r(C)p.r(C)p.r(U)p.r(A)p.r(U)p.r(C)p.r(A)p.r(A)p.r(G)p.r(G)p.r(A)p.r(G)p.r(A)p.r(U)p.r(C)p.r(A)p.d(T)p.d(T)}|RNA2{r(U)p.r(G)p.r(A)p.r(U)p.r(C)p.r(U)p.r(C)p.r(C)p.r(U)p.r(U)p.r(G)p.r(A)p.r(U)p.r(A)p.r(G)p.r(G)p.r(U)p.r(A)p.r(G)p.d(G)p.d(G)}$$$RNA1{StrandType:ss}|RNA2{StrandType:as}$” showed a normalised inhibition (eCFP-eYFP dual reporter) of 114%.
Substance “RNA1{r(C)p.r(U)p.r(A)p.r(U)p.r(C)p.r(A)p.r(A)p.r(G)p.r(G)p.r(A)p.r(G)p.r(A)p.r(U)p.r(C)p.r(A)p.r(U)p.r(U)p.r(C)p.r(A)p.d(T)p.d(T)}|RNA2{r(U)p.r(G)p.r(A)p.r(A)p.r(U)p.r(G)p.r(A)p.r(U)p.r(C)p.r(U)p.r(C)p.r(C)p.r(U)p.r(U)p.r(G)p.r(A)p.r(U)p.r(A)p.r(G)p.d(G)p.d(T)}$$$RNA1{StrandType:ss}|RNA2{StrandType:as}$” has a normalised inhibition (eCFP-eYFP dual reporter) of 115%.
For “RNA1{r(C)p.r(U)p.r(C)p.r(U)p.r(C)p.r(U)p.r(G)p.r(G)p.r(G)p.r(U)p.r(C)p.r(U)p.r(G)p.r(G)p.r(G)p.r(U)p.r(C)p.r(A)p.r(C)p.d(T)p.d(T)}|RNA2{r(G)p.r(U)p.r(G)p.r(A)p.r(C)p.r(C)p.r(C)p.r(A)p.r(G)p.r(A)p.r(C)p.r(C)p.r(C)p.r(A)p.r(G)p.r(A)p.r(G)p.r(A)p.r(G)p.d(T)p.d(G)}$$$RNA1{StrandType:ss}|RNA2{StrandType:as}$”, the normalised inhibition (eCFP-eYFP dual reporter) was 73.1%.
In the case of “RNA1{r(C)p.r(U)p.r(G)p.r(A)p.r(G)p.r(G)p.r(G)p.r(A)p.r(A)p.r(A)p.r(U)p.r(G)p.r(C)p.r(A)p.r(G)p.r(A)p.r(A)p.r(G)p.r(U)p.d(T)p.d(T)}|RNA2{r(A)p.r(C)p.r(U)p.r(U)p.r(C)p.r(U)p.r(G)p.r(C)p.r(A)p.r(U)p.r(U)p.r(U)p.r(C)p.r(C)p.r(C)p.r(U)p.r(C)p.r(A)p.r(G)p.d(T)p.d(T)}$$$RNA1{StrandType:ss}|RNA2{StrandType:as}$”, the normalised inhibition (eCFP-eYFP dual reporter) is reported as 83.4%.
Work on “RNA1{r(C)p.r(U)p.r(G)p.r(G)p.r(G)p.r(U)p.r(C)p.r(U)p.r(G)p.r(G)p.r(G)p.r(U)p.r(C)p.r(A)p.r(C)p.r(U)p.r(C)p.r(U)p.r(U)p.d(T)p.d(T)}|RNA2{r(A)p.r(A)p.r(G)p.r(A)p.r(G)p.r(U)p.r(G)p.r(A)p.r(C)p.r(C)p.r(C)p.r(A)p.r(G)p.r(A)p.r(C)p.r(C)p.r(C)p.r(A)p.r(G)p.d(A)p.d(G)}$$$RNA1{StrandType:ss}|RNA2{StrandType:as}$” yielded a normalised inhibition (eCFP-eYFP dual reporter) of 87.6%.
Work on “RNA1{r(C)p.r(U)p.r(U)p.r(C)p.r(C)p.r(C)p.r(A)p.r(U)p.r(U)p.r(U)p.r(G)p.r(A)p.r(U)p.r(G)p.r(G)p.r(G)p.r(C)p.r(C)p.r(A)p.d(T)p.d(T)}|RNA2{r(U)p.r(G)p.r(G)p.r(C)p.r(C)p.r(C)p.r(A)p.r(U)p.r(C)p.r(A)p.r(A)p.r(A)p.r(U)p.r(G)p.r(G)p.r(G)p.r(A)p.r(A)p.r(G)p.d(T)p.d(T)}$$$RNA1{StrandType:ss}|RNA2{StrandType:as}$” yielded a normalised inhibition (eCFP-eYFP dual reporter) of 85%.
For “RNA1{r(G)p.r(A)p.r(A)p.r(A)p.r(C)p.r(A)p.r(C)p.r(U)p.r(C)p.r(U)p.r(A)p.r(G)p.r(G)p.r(C)p.r(C)p.r(A)p.r(U)p.r(G)p.r(C)p.d(T)p.d(T)}|RNA2{r(G)p.r(C)p.r(A)p.r(U)p.r(G)p.r(G)p.r(C)p.r(C)p.r(U)p.r(A)p.r(G)p.r(A)p.r(G)p.r(U)p.r(G)p.r(U)p.r(U)p.r(U)p.r(C)p.d(C)p.d(T)}$$$RNA1{StrandType:ss}|RNA2{StrandType:as}$”, the normalised inhibition (eCFP-eYFP dual reporter) was 53.7%.
For “RNA1{r(G)p.r(A)p.r(A)p.r(C)p.r(U)p.r(U)p.r(C)p.r(C)p.r(U)p.r(G)p.r(U)p.r(U)p.r(U)p.r(G)p.r(U)p.r(U)p.r(G)p.r(C)p.r(C)p.d(T)p.d(T)}|RNA2{r(G)p.r(G)p.r(C)p.r(A)p.r(A)p.r(C)p.r(A)p.r(A)p.r(A)p.r(C)p.r(A)p.r(G)p.r(G)p.r(A)p.r(A)p.r(G)p.r(U)p.r(U)p.r(C)p.d(A)p.d(C)}$$$RNA1{StrandType:ss}|RNA2{StrandType:as}$”, the normalised inhibition (eCFP-eYFP dual reporter) was 53.6%.
In the case of “RNA1{r(G)p.r(A)p.r(A)p.r(G)p.r(C)p.r(C)p.r(C)p.r(A)p.r(G)p.r(G)p.r(U)p.r(G)p.r(U)p.r(G)p.r(G)p.r(A)p.r(G)p.r(U)p.r(G)p.d(T)p.d(T)}|RNA2{r(C)p.r(A)p.r(C)p.r(U)p.r(C)p.r(C)p.r(A)p.r(C)p.r(A)p.r(C)p.r(C)p.r(U)p.r(G)p.r(G)p.r(G)p.r(C)p.r(U)p.r(U)p.r(C)p.d(T)p.d(G)}$$$RNA1{StrandType:ss}|RNA2{StrandType:as}$”, the normalised inhibition (eCFP-eYFP dual reporter) is reported as 94%.
In the case of “RNA1{r(G)p.r(A)p.r(A)p.r(G)p.r(U)p.r(G)p.r(A)p.r(C)p.r(C)p.r(G)p.r(C)p.r(A)p.r(C)p.r(U)p.r(U)p.r(C)p.r(A)p.r(G)p.r(U)p.d(T)p.d(T)}|RNA2{r(A)p.r(C)p.r(U)p.r(G)p.r(A)p.r(A)p.r(G)p.r(U)p.r(G)p.r(C)p.r(G)p.r(G)p.r(U)p.r(C)p.r(A)p.r(C)p.r(U)p.r(U)p.r(C)p.d(T)p.d(C)}$$$RNA1{StrandType:ss}|RNA2{StrandType:as}$”, the normalised inhibition (eCFP-eYFP dual reporter) is reported as 40.5%.
“RNA1{r(G)p.r(A)p.r(A)p.r(U)p.r(U)p.r(A)p.r(U)p.r(C)p.r(U)p.r(U)p.r(A)p.r(G)p.r(G)p.r(A)p.r(A)p.r(A)p.r(U)p.r(U)p.r(U)p.d(T)p.d(T)}|RNA2{r(A)p.r(A)p.r(A)p.r(U)p.r(U)p.r(U)p.r(C)p.r(C)p.r(U)p.r(A)p.r(A)p.r(G)p.r(A)p.r(U)p.r(A)p.r(A)p.r(U)p.r(U)p.r(C)p.d(T)p.d(G)}$$$RNA1{StrandType:ss}|RNA2{StrandType:as}$” showed a normalised inhibition (eCFP-eYFP dual reporter) of 116%.
With “RNA1{r(G)p.r(A)p.r(C)p.r(U)p.r(U)p.r(C)p.r(A)p.r(G)p.r(U)p.r(C)p.r(U)p.r(U)p.r(A)p.r(C)p.r(A)p.r(A)p.r(A)p.r(G)p.r(G)p.d(T)p.d(T)}|RNA2{r(C)p.r(C)p.r(U)p.r(U)p.r(U)p.r(G)p.r(U)p.r(A)p.r(A)p.r(G)p.r(A)p.r(C)p.r(U)p.r(G)p.r(A)p.r(A)p.r(G)p.r(U)p.r(C)p.d(T)p.d(T)}$$$RNA1{StrandType:ss}|RNA2{StrandType:as}$” the normalised inhibition (eCFP-eYFP dual reporter) was 92.9%.
“RNA1{r(G)p.r(A)p.r(G)p.r(G)p.r(G)p.r(A)p.r(A)p.r(A)p.r(U)p.r(G)p.r(C)p.r(A)p.r(G)p.r(A)p.r(A)p.r(G)p.r(U)p.r(U)p.r(C)p.d(T)p.d(T)}|RNA2{r(G)p.r(A)p.r(A)p.r(C)p.r(U)p.r(U)p.r(C)p.r(U)p.r(G)p.r(C)p.r(A)p.r(U)p.r(U)p.r(U)p.r(C)p.r(C)p.r(C)p.r(U)p.r(C)p.d(A)p.d(G)}$$$RNA1{StrandType:ss}|RNA2{StrandType:as}$” was tested, and the normalised inhibition (eCFP-eYFP dual reporter) was 97.5%.
“RNA1{r(G)p.r(A)p.r(G)p.r(U)p.r(G)p.r(C)p.r(C)p.r(A)p.r(G)p.r(A)p.r(U)p.r(G)p.r(U)p.r(U)p.r(G)p.r(C)p.r(A)p.r(G)p.r(A)p.d(T)p.d(T)}|RNA2{r(U)p.r(C)p.r(U)p.r(G)p.r(C)p.r(A)p.r(A)p.r(C)p.r(A)p.r(U)p.r(C)p.r(U)p.r(G)p.r(G)p.r(C)p.r(A)p.r(C)p.r(U)p.r(C)p.d(C)p.d(A)}$$$RNA1{StrandType:ss}|RNA2{StrandType:as}$” gave a normalised inhibition (eCFP-eYFP dual reporter) of 104%.
“RNA1{r(G)p.r(A)p.r(U)p.r(G)p.r(A)p.r(G)p.r(U)p.r(A)p.r(C)p.r(U)p.r(G)p.r(G)p.r(A)p.r(C)p.r(G)p.r(G)p.r(A)p.r(U)p.r(G)p.d(T)p.d(T)}|RNA2{r(C)p.r(A)p.r(U)p.r(C)p.r(C)p.r(G)p.r(U)p.r(C)p.r(C)p.r(A)p.r(G)p.r(U)p.r(A)p.r(C)p.r(U)p.r(C)p.r(A)p.r(U)p.r(C)p.d(C)p.d(T)}$$$RNA1{StrandType:ss}|RNA2{StrandType:as}$” showed a normalised inhibition (eCFP-eYFP dual reporter) of 87.4%.
“RNA1{r(G)p.r(A)p.r(U)p.r(G)p.r(G)p.r(U)p.r(G)p.r(A)p.r(G)p.r(G)p.r(A)p.r(C)p.r(U)p.r(C)p.r(A)p.r(G)p.r(G)p.r(C)p.r(G)p.d(T)p.d(T)}|RNA2{r(C)p.r(G)p.r(C)p.r(C)p.r(U)p.r(G)p.r(A)p.r(G)p.r(U)p.r(C)p.r(C)p.r(U)p.r(C)p.r(A)p.r(C)p.r(C)p.r(A)p.r(U)p.r(C)p.d(C)p.d(G)}$$$RNA1{StrandType:ss}|RNA2{StrandType:as}$” gave a normalised inhibition (eCFP-eYFP dual reporter) of 61.8%.
In the case of “RNA1{r(G)p.r(A)p.r(U)p.r(G)p.r(U)p.r(U)p.r(G)p.r(C)p.r(A)p.r(G)p.r(A)p.r(A)p.r(U)p.r(U)p.r(C)p.r(U)p.r(C)p.r(A)p.r(C)p.d(T)p.d(T)}|RNA2{r(G)p.r(U)p.r(G)p.r(A)p.r(G)p.r(A)p.r(A)p.r(U)p.r(U)p.r(C)p.r(U)p.r(G)p.r(C)p.r(A)p.r(A)p.r(C)p.r(A)p.r(U)p.r(C)p.d(T)p.d(G)}$$$RNA1{StrandType:ss}|RNA2{StrandType:as}$”, the normalised inhibition (eCFP-eYFP dual reporter) is reported as 119%.
“RNA1{r(G)p.r(C)p.r(A)p.r(A)p.r(G)p.r(G)p.r(G)p.r(G)p.r(A)p.r(G)p.r(A)p.r(U)p.r(C)p.r(A)p.r(C)p.r(G)p.r(G)p.r(A)p.r(G)p.d(T)p.d(T)}|RNA2{r(C)p.r(U)p.r(C)p.r(C)p.r(G)p.r(U)p.r(G)p.r(A)p.r(U)p.r(C)p.r(U)p.r(C)p.r(C)p.r(C)p.r(C)p.r(U)p.r(U)p.r(G)p.r(C)p.d(G)p.d(A)}$$$RNA1{StrandType:ss}|RNA2{StrandType:as}$” was tested, and the normalised inhibition (eCFP-eYFP dual reporter) was 90.5%.
Work on “RNA1{r(G)p.r(C)p.r(A)p.r(G)p.r(A)p.r(A)p.r(U)p.r(U)p.r(A)p.r(U)p.r(C)p.r(U)p.r(U)p.r(A)p.r(G)p.r(G)p.r(A)p.r(A)p.r(A)p.d(T)p.d(T)}|RNA2{r(U)p.r(U)p.r(U)p.r(C)p.r(C)p.r(U)p.r(A)p.r(A)p.r(G)p.r(A)p.r(U)p.r(A)p.r(A)p.r(U)p.r(U)p.r(C)p.r(U)p.r(G)p.r(C)p.d(G)p.d(C)}$$$RNA1{StrandType:ss}|RNA2{StrandType:as}$” yielded a normalised inhibition (eCFP-eYFP dual reporter) of 132%.
“RNA1{r(G)p.r(C)p.r(A)p.r(G)p.r(A)p.r(A)p.r(U)p.r(U)p.r(C)p.r(U)p.r(C)p.r(A)p.r(C)p.r(U)p.r(A)p.r(A)p.r(U)p.r(G)p.r(C)p.d(T)p.d(T)}|RNA2{r(G)p.r(C)p.r(A)p.r(U)p.r(U)p.r(A)p.r(G)p.r(U)p.r(G)p.r(A)p.r(G)p.r(A)p.r(A)p.r(U)p.r(U)p.r(C)p.r(U)p.r(G)p.r(C)p.d(A)p.d(A)}$$$RNA1{StrandType:ss}|RNA2{StrandType:as}$” gave a normalised inhibition (eCFP-eYFP dual reporter) of 94.3%.
